Measurements published in US20230081426A1, “COMPOUNDS AND METHODS FOR KRAS MODULATION AND INDICATIONS THEREFOR” (Plexxikon Inc., priority 2020, published 2023).

How the values were obtained:
[1] = target: T1, G12D-mutant human KRAS (amino acid residues 1-188) (Homo sapiens, UniProt P01116, G12D); assay: KRAS Binding Disruption Assay (AlphaScreen; biotinylated KRpep-2d analogue or RAF1-RBD), G12D; details: KRAS G12D; geometric mean; read-out: KRAS GMean IC50 (uM) MUTATION: G12D
T1 construct: G12D or G12C-mutant human KRAS (amino acid residues 1-188) with FLAG tag; made in house; host or cells: E. coli
Method in brief: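 AlphaScreen readout: signal falls as compound displaces biotinylated KRpep-2d analogue or RAF1-RBD from mutant KRAS. Both partners at 5-20 nM, 1 h binding at 25° C, then 10 μg/mL Anti-Flag acceptor and streptavidin donor beads for 1 h. IC50 by nonlinear regression of % inhibition.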

[2] = target: T2, G12V-mutant human KRAS (amino acid residues 1-188) (Homo sapiens, UniProt P01116, G12V); assay: KRAS Binding Competition Assay (AlphaScreen; biotinylated KRpep-2d analogue), G12V; details: geometric mean, read-out: KRAS GMean IC50 (uM) MUTATION: G12V
T2 construct: G12V-mutant human KRAS (amino acid residues 1-188) with FLAG tag was purified from E. coli; made in house; host or cells: E. coli

| SMILES | IC50 [1] [µM] | IC50 [2] [µM] |
| --- | --- | --- |
| Cc1nc2cc(-c3ccc4c(N5C[C@H]6CC[C@@H](C5)N6)nc(OC[C@@H]5CCCN5C)nc4c3)ccc2[nH]1 [P-0163, 4-((1R,5S)-3,8-diazabicyclo[3.2.1]octan-3-yl)-7-(2-methyl-1H-benzo[d]imidazol-5-yl)-2-(((S)-1-methylpyrrolidin-2-yl)methoxy)quinazoline] | 100 to 1000 | 100 to 1000 |
| COc1cccc(F)c1-c1c(Cl)cc2c(N3C[C@H]4CC[C@@H](C3)N4)nc(Oc3cccc4c3CN(C)CC4)nc2c1F [P-0335, 4-((1R,5S)-3,8-diazabicyclo[3.2.1]octan-3-yl)-6-chloro-8-fluoro-7-(2-fluoro-6-methoxyphenyl)-2-((2-methyl-1,2,3,4-tetrahydroisoquinolin-8-yl)oxy)quinazoline] | 10 to 100 | 10 to 100 |
| CN1CCC[C@H]1COc1nc(N2C[C@H]3CC[C@@H](C2)N3)c2ccc(-c3c(Cl)ccc4[nH]ccc34)cc2n1 [P-0236, 4-((1R,5S)-3,8-diazabicyclo[3.2.1]octan-3-yl)-7-(5-chloro-1H-indol-4-yl)-2-(((S)-1-methylpyrrolidin-2-yl)methoxy)quinazoline] | 10 to 100 | 10 to 100 |
| CN1CCC[C@H]1COc1nc(N2[C@@H]3CC[C@H]2CN(C(=O)Cc2n[nH]c4ccccc24)C3)c2ccc(-c3cc(O)cc4ccccc34)cc2n1 [P-0312, 1-((1R,5S)-8-(7-(3-hydroxynaphthalen-1-yl)-2-(((S)-1-methylpyrrolidin-2-yl)methoxy)quinazolin-4-yl)-3,8-diazabicyclo[3.2.1]octan-3-yl)-2-(1H-indazol-3-yl)ethan-1-one] | 10 to 100 | 10 to 100 |
| CC(=O)Nc1cccc(-c2ccc3c(N4C[C@H]5CC[C@@H](C4)N5)nc(OCC4CCCN4C)nc3c2)c1 (stereo partly drawn) [P-0156, N-(3-(4-((1R,5S)-3,8-diazabicyclo[3.2.1]octan-3-yl)-2-((1-methylpyrrolidin-2-yl)methoxy)quinazolin-7-yl)phenyl)acetamide] | 100 to 1000 | 100 to 1000 |
| Cc1cccc2c1N(c1ccc3c(N4C[C@H]5CC[C@@H](C4)N5)nc(OC[C@@H]4CCCN4C)nc3c1)CC(O)C2 (stereo partly drawn) [P-0406, 1-(4-((1R,5S)-3,8-diazabicyclo[3.2.1]octan-3-yl)-2-(((S)-1-methylpyrrolidin-2-yl)methoxy)quinazolin-7-yl)-8-methyl-1,2,3,4-tetrahydroquinolin-3-ol] | 10 to 100 | 100 to 1000 |

Second part, the compound after the results:

| IC50 [1] [µM] | IC50 [2] [µM] | SMILES |
| --- | --- | --- |
| 0.0001 to 10 | 10 to 100 | CONC(=O)N1[C@@H]2CC[C@H]1CN(c1nc(OCC3CCCN3C)nc3c(F)c(-c4cc(O)cc5ccccc45)ccc13)C2 (stereo partly drawn) [P-0420, (1R,5S)-3-(8-fluoro-7-(3-hydroxynaphthalen-1-yl)-2-((1-methylpyrrolidin-2-yl)methoxy)quinazolin-4-yl)-N-methoxy-3,8-diazabicyclo[3.2.1]octane-8-carboxamide] |
| 0.0001 to 10 | 10 to 100 | CN1CCc2c(cccc2Oc2nc(N3C[C@H]4CC[C@@H](C3)N4)c3cc(Cl)c(-c4c(O)cccc4F)c(F)c3n2)C1 [P-0333, 2-(4-((1R,5S)-3,8-diazabicyclo[3.2.1]octan-3-yl)-6-chloro-8-fluoro-2-((2-methyl-1,2,3,4-tetrahydroisoquinolin-5-yl)oxy)quinazolin-7-yl)-3-fluorophenol] |
| 0.0001 to 10 | 100 to 1000 | CN1CCC[C@H]1COc1nc(N2C[C@H]3CC[C@@H](C2)N3)c2ccc(-c3c[nH]c4ccc(Cl)cc34)c(F)c2n1 [P-0295, 4-((1R,5S)-3,8-diazabicyclo[3.2.1]octan-3-yl)-7-(5-chloro-1H-indol-3-yl)-8-fluoro-2-(((S)-1-methylpyrrolidin-2-yl)methoxy)quinazoline] |
| 0.0001 to 10 | 0.0001 to 10 | O=C(CN1CCCS1(=O)=O)N1[C@@H]2CC[C@H]1CN(c1nc(OCC34CCCN3CCC4)nc3cc(-c4cc(O)cc5ccccc45)ccc13)C2 [P-0092, 2-(1,1-dioxidoisothiazolidin-2-yl)-1-((1R,5S)-3-(7-(3-hydroxynaphthalen-1-yl)-2-((tetrahydro-1H-pyrrolizin-7a(5H)-yl)methoxy)quinazolin-4-yl)-3,8-diazabicyclo[3.2.1]octan-8-yl)ethan-1-one] |
